In paper PMC12064818, “A general assay platform to study protein pharmacology using ligand-dependent structural dynamics” (Nature Communications, 2025):
Structures can show the parent of a compound that is named as a salt. Where two headings read alike, the source gives them in different places.

Legend:
[1] = tested on: PKA; conditions: cited from earlier work
[2] = target: PKA-N-HiBiT (Homo sapiens, UniProt P17612); assay: SDR assay, PKA-N-HiBiT
[3] = target: T1, ABL1-N-HiBiT kinase domain (Homo sapiens, UniProt P00519); assay: SDR assay, ABL1-N-HiBiT
T1 sequence (P00519 233-500): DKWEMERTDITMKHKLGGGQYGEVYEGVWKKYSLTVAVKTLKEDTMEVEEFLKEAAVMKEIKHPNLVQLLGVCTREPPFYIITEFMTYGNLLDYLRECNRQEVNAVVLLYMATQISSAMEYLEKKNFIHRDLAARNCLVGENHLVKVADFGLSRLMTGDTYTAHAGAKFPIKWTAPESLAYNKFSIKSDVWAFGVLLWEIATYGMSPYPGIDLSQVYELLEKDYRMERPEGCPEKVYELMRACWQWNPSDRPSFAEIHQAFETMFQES

[4] = target: FLuc-N-HiBiT (firefly luciferase) (Photinus pyralis, UniProt P08659, form not given/L550V); assay: SDR assay, FLuc-N-HiBiT; conditions: ATP-independent pyrazolo pyrimidine (clade P)
Chain of FLuc-N-HiBiT (firefly luciferase) (P08659 2-550 L550V, form open): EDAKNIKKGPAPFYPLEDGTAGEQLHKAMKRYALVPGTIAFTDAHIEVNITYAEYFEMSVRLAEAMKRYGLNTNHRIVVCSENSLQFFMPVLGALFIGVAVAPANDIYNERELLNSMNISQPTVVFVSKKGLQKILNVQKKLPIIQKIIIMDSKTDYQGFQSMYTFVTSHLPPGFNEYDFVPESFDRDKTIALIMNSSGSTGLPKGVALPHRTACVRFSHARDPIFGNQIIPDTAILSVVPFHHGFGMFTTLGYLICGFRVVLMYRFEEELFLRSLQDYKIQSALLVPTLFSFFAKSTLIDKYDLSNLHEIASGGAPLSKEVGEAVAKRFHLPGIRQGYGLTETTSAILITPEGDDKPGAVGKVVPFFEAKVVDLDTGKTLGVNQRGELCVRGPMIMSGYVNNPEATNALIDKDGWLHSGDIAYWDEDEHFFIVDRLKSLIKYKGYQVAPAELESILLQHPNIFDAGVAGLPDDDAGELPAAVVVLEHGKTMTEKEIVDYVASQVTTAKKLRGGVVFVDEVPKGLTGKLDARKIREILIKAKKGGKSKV

[5] = annotation yes/no for kinase library compound, source not given
[6] = PKA-N-HiBiT qHTS, SDR assay, average maximal response
[7] = ABL1-N-HiBiT qHTS, average maximal SDR response
[8] = heatmap data, 128 kinase inhibitors
[9] = ABL1-N-HiBiT qHTS, SDR assay, average maximal response
[10] = read-out: SDR Ave SDR50, ABL1-N-HiBiT qHTS, SDR assay, average
[11] = read-out: SDR Ave SDR50, ABL1-N-HiBiT qHTS, average, unit inferred

Compound: O=C1CCC(N2C(=O)c3ccccc3C2=O)C(=O)N1 (stereo not shown) [Thalidomide]
- Annotated PKA activity [1, 5]: no
- SDR Ave Max Response [2, 6]: -13.01
- SDR Ave Max Response [3, 7]: -2.59

Compound: CaMKII-IN-1
- Annotated PKA activity [1, 5]: no
- SDR Ave Max Response [2, 6]: -11.95
- ABL1 SDR pSDR50 [3, 8]: 4.38
- SDR Ave Max Response [3, 7]: -23.39

Compound: Cc1cc(F)ccc1-c1nc(NC(CO)CO)nc2c1ccc(=O)n2-c1c(F)cccc1F [Dilmapimod]
- Annotated PKA activity [1, 5]: no
- SDR Ave Max Response [2, 6]: 3.69
- SDR Ave Max Response [3, 9]: -3.68

Compound: Cc1ccc(C(=O)Nc2ccc(Oc3cc4cnn(C)c4cc3-c3cn[nH]c3)c(F)c2)c(=O)n1-c1ccc(F)cc1 [Merestinib]
- Annotated PKA activity [1, 5]: no
- SDR Ave Max Response [2, 6]: 8.78
- SDR Ave Max Response [3, 7]: 22.76

Compound: O=C(NCCCNc1nc(Nc2ccc(N3CCOCC3)cc2)ncc1C1CC1)C1CCC1 [MRT-68601 HCl]
- Annotated PKA activity [1, 5]: no
- SDR Ave Max Response [2, 6]: 1.65
- SDR Ave Max Response [3, 9]: -7.81

Compound: S=C(NCc1ccc2c(c1)OCO2)N1CCN(c2ncnc3c2oc2ccccc23)CC1 [Amuvatinib]
- Annotated PKA activity [1, 5]: no
- SDR Ave Max Response [2, 6]: -0.36
- SDR Ave Max Response [3, 7]: 8.96

Compound: CC(C)CCN1c2nc(Nc3cc(F)c(O)c(F)c3)ncc2N(C)C(=O)C1C (stereo not shown) [BI-D1870]
- Annotated PKA activity [1, 5]: no
- SDR Ave Max Response [2, 6]: -9.75
- ABL1 SDR pSDR50 [3, 8]: 5.36
- SDR Ave Max Response [3, 9]: -47.47
- EC50 [3, 10]: 4.72 µM

Compound: CN1CCN(CCCNc2ncc(Cl)c(-c3cc4c(C(=O)NC5CC5)cccc4s3)n2)CC1 [LY-2409881]
- Annotated PKA activity [1, 5]: no
- SDR Ave Max Response [2, 6]: -2.90
- ABL1 SDR pSDR50 [3, 8]: 5.21
- SDR Ave Max Response [3, 7]: -19.98
- EC50 [3, 11]: 7.98 µM

Compound: COc1ccc(-n2c(C)c([N+](=O)[O-])c3ccc(O)cc32)cc1 [ID-8]
- Annotated PKA activity [1, 5]: no
- SDR Ave Max Response [2, 6]: 2.68
- SDR Ave Max Response [3, 7]: 10.66

Compound: O=C(NC1CCNCC1)c1n[nH]cc1NC(=O)c1c(Cl)cccc1Cl [AT-7519]
- Annotated PKA activity [1, 5]: no
- SDR Ave Max Response [2, 6]: -18.47
- SDR Ave Max Response [3, 7]: 9.60

Compound: Cc1ccc(NC(=O)N2CCN(c3nc(N)nc4sc(-c5cccnc5)nc34)CC2)cc1 [PI4KIII beta inhibitor 3]
- Annotated PKA activity [1, 5]: no
- SDR Ave Max Response [2, 6]: 3.67
- SDR Ave pSDR50 ([3]; ABL1-N-HiBiT qHTS, average): 4.83
- SDR Ave Max Response [3, 7]: 18.89
- EC50 [3, 11]: 14.9 µM

Compound: Cn1sc(=O)n(Cc2ccccc2)c1=O [TDZD 8]
- Annotated PKA activity [1, 5]: no
- SDR Ave Max Response [2, 6]: 1.44
- SDR Ave Max Response [3, 7]: -3.85

Compound: O=c1cc(N2CCOCC2)nc2c3ccccc3ccn12 [Compound 401]
- Annotated PKA activity [1, 5]: no
- Emax ([2]; read-out: SDR Ave Max Response): 0.18%
- pSDR50 (clade P) [4]: 4.78
- % Activity (max response) ([4]; SDR): 29.04%
- EC50 ([3]; ABL1 SDR pSDR50, ABL1, SDR, heatmap data, 128 kinase inhibitors): 7.41 µM
- EC50 ([3]; SDR Ave SDR50, ABL1-N-HiBiT qHTS, average, unit inferred): 7.6 µM
- Emax ([3]; read-out: SDR Ave Max Response): 22.9%

Compound: COc1cc(NC(=O)c2cccc(-n3cc(NC(=O)Nc4cccc(C)c4)cn3)c2)cc(OC)c1OC [SR 3576]
- Annotated PKA activity [1, 5]: no
- SDR Ave Max Response [2, 6]: 1.20
- SDR Ave Max Response [3, 7]: 6.18

Compound: COC(=O)Nc1ccc(-c2nc(N3CCOCC3)c3cnn(C4CCN(C(=O)OC)CC4)c3n2)cc1 [WYE-354]
- Annotated PKA activity [1, 5]: no
- SDR Ave Max Response [2, 6]: 4.88
- SDR Ave Max Response [3, 7]: 1.70

Compound: C=CC(=O)N1CCC(Oc2cc3c(Nc4ccc(Cl)c(Cl)c4F)ncnc3cc2OC)CC1 [Poziotinib]
- Annotated PKA activity [1, 5]: no
- SDR Ave Max Response [2, 6]: 8.47
- ABL1 SDR pSDR50 [3, 8]: 4.03
- SDR Ave Max Response [3, 7]: 56.26

Compound: Indirubin
- Annotated PKA activity [1, 5]: no
- SDR Ave Max Response [2, 6]: 5.53
- SDR Ave Max Response [3]: 2.52

Compound: CO[C@H]1/C=C/O[C@@]2(C)Oc3c(C)c(O)c4c(O)c(c(/C=N\N5CCN(C6CCCC6)CC5)c(O)c4c3C2=O)NC(=O)C(C)=C/C=C/[C@H](C)[C@H](O)[C@@H](C)[C@@H](O)[C@@H](C)[C@H](OC(C)=O)[C@@H]1C [Rifapentin]
- Annotated PKA activity [1, 5]: no
- SDR Ave Max Response [2, 6]: -45.77
- EC50 ([2]; read-out: PKA SDR Ave SDR50, PKA-N-HiBiT qHTS, SDR assay, average): 17.1 µM
- ABL1 SDR pSDR50 [3, 8]: 4.28
- SDR Ave Max Response [3, 7]: -34.67

Compound: C=CC(=O)Nc1cccc(Oc2nc(Nc3ccc(N4CCN(C)CC4)cc3OC)ncc2Cl)c1 [WZ4002]
- Annotated PKA activity [1, 5]: no
- SDR Ave Max Response [2, 6]: 3.01
- SDR Ave Max Response [3, 7]: 9.81

Compound: UK-371804
- Annotated PKA activity [1, 5]: no
- SDR Ave Max Response [2, 6]: 6.35
- ABL1 SDR pSDR50 [3, 8]: 4.69
- SDR Ave Max Response [3, 9]: -28.31
- EC50 [3, 10]: 26.5 µM

Compound: CCN1C(=O)CNc2ncc(-c3ccc(-c4nc[nH]n4)nc3C)nc21 [CC-115]
- Annotated PKA activity [1, 5]: no
- SDR Ave Max Response [2, 6]: -2.34
- SDR Ave Max Response [3, 9]: 31.14

Compound: C[C@@H]1CCNC(=O)c2cc3ccc(C(=O)Nc4nc5ccccc5n4CCCN(C)C)cc3n21 [BIX-02565]
- Annotated PKA activity [1, 5]: no
- SDR Ave Max Response [2, 6]: 10.58
- SDR Ave Max Response [3, 7]: 21.22

Compound: CCn1nc(C2CCN(C(=O)CCO)CC2)nc1-c1cnc(N)c(-c2nnc(C(C)(C)C)o2)n1 [AZD-8835]
- Annotated PKA activity [1, 5]: no
- SDR Ave Max Response [2, 6]: 6.01
- ABL1 SDR pSDR50 [3, 8]: 4.80
- SDR Ave Max Response [3, 9]: 63.43
- EC50 [3, 10]: 17.6 µM

Compound: Nc1nc(NCCNc2ncc(-n3ccnc3)c(-c3ccc(Cl)cc3Cl)n2)ccc1[N+](=O)[O-] [CT-98014]
- Annotated PKA activity [1]: no
- EC50 [2]: 11.7 µM
- SDR Ave Max Response [2]: -28.99
- EC50 ([2]; read-out: PKA SDR Ave SDR50): 12.9 µM
- ABL1 SDR pSDR50 [3, 8]: 4.54
- SDR Ave Max Response [3, 7]: -28.48
- EC50 [3, 11]: 33.8 µM

Compound: CN1CCN([C@H]2CC[C@H](n3cc(-c4ccc(Oc5ccccc5)cc4)c4c(N)ncnc43)CC2)CC1 [A-419259]
- Annotated PKA activity [1, 5]: no
- SDR Ave Max Response [2, 6]: -12.03
- SDR Ave Max Response [3, 7]: 100.16

Compound: Cc1nc2ccc(-n3ncc(C(=O)c4cc5ccccc5[nH]4)c3N)cc2[nH]1 [CH-5183284]
- Annotated PKA activity [1, 5]: no
- SDR Ave Max Response [2, 6]: 4.01
- ABL1 SDR pSDR50 [3, 8]: 5.61
- SDR Ave Max Response [3, 7]: 37.79
- EC50 [3, 11]: 2.51 µM

Compound: CNC(=O)c1ccccc1Nc1nc(Nc2ccc(N3CCOCC3)cc2OC)ncc1Cl [NVP-TAE226]
- Annotated PKA activity [1, 5]: no
- SDR Ave Max Response [2, 6]: 11.43
- SDR Ave Max Response [3, 7]: 60.77

Compound: STF-083010
- Annotated PKA activity [1, 5]: no
- SDR Ave Max Response [2, 6]: 1.50
- SDR Ave Max Response [3, 7]: -0.63

Compound: Cc1cc(F)ccc1-c1nc(NCCNC(=N)NC#N)nc2c1ccc(=O)n2-c1c(F)cccc1F [SB 706504]
- Annotated PKA activity [1, 5]: no
- SDR Ave Max Response [2, 6]: 3.70
- SDR Ave Max Response [3, 7]: 3.05

Compound: PHT-427
- Annotated PKA activity [1, 5]: no
- SDR Ave Max Response [2, 6]: -6.93
- SDR Ave Max Response [3, 7]: 10.06

Compound: Cn1ncc(NC(=O)c2nc(-c3c(F)cccc3F)sc2N)c1N1CC[C@@H](N)[C@H](F)CC1 [GDC-0339]
- Annotated PKA activity [1, 5]: no
- SDR Ave Max Response [2, 6]: 10.49
- SDR Ave Max Response [3, 9]: 12.78

Compound: CC1(C)OCCn2c1nc1c(N3CCOCC3)nc(-c3cnc(N)nc3)nc12 [GDC-0084]
- Annotated PKA activity [1, 5]: no
- SDR Ave Max Response [2, 6]: 3.97
- ABL1 SDR pSDR50 [3, 8]: 5.16
- SDR Ave Max Response [3, 9]: 58.32
- EC50 [3, 10]: 7.07 µM

Compound: N#Cc1ccc2ncnc(NCCc3ccccc3)c2c1 [Senexin A]
- Annotated PKA activity [1, 5]: no
- SDR Ave Max Response [2, 6]: -4.85
- SDR Ave Max Response [3, 7]: -0.36

Compound: O=C(Nc1ccc(OC(F)(F)F)cc1)c1sccc1NCc1ccnc2ccccc12 [OSI-930]
- Annotated PKA activity [1, 5]: no
- SDR Ave Max Response [2, 6]: 9.10
- ABL1 SDR pSDR50 [3, 8]: 5.04
- SDR Ave Max Response [3, 7]: 17.46
- EC50 [3, 11]: 9.38 µM

Compound: COc1ccc(CNC(=O)Nc2ncc([N+](=O)[O-])s2)cc1 [AR-A014418]
- Annotated PKA activity [1, 5]: no
- SDR Ave Max Response [2, 6]: -0.25
- SDR Ave Max Response [3, 7]: -7.75

Compound: CCNC(=O)Nc1ccc(-c2nc3c(c(N4CCOC[C@@H]4C)n2)CCN(c2ncccn2)C3)cc1 [mTOR-IN-1]
- Annotated PKA activity [1, 5]: no
- SDR Ave Max Response [2, 6]: 1.84
- SDR Ave Max Response [3, 7]: 10.90

Compound: C[C@@H]1CN(CC(=O)Nc2ccc3c(c2)Cc2cccc(-c4cc(=O)cc(N5CCOCC5)o4)c2S3)C[C@H](C)O1 [KU-60019]
- Annotated PKA activity [1, 5]: no
- SDR Ave Max Response [2, 6]: -4.54
- SDR Ave Max Response [3, 7]: -23.55
